pIC50: −log10 of the molar value. Entries after “also recorded” stand apart in the source; their conditions may differ. Like-named read-outs stand apart in the source and are kept apart here.
What was measured:
P388D1 cells = assay: P388D1 cell viability, camptothecin and ursolic acid alone or together (Trypan Blue, hemacytometer); details: 6 hr incubation, 1 μM camptothecin, 0.5 μM ursolic acid
Excerpt: (§1) Viable cells were scored by the use of a hemacytometer plate after straining with Trypan Blue.

[1] = as above; details: mouse, % viability, 6 hr incubation, 1 μM camptothecin, 0.5 μM ursolic acid
Excerpt: as §1

[2] = test system: TRF4-deficient yeast (trf4 single mutants); assay: yeast spot growth assay, sensitivity to camptothecin; format: cell-based, S. cerevisiae (yeast)
Description: Spots represent serial 10-fold dilutions of saturated yeast cultures spotted onto Petri plates and incubated at 30° C. for 2 days in the presence of 10 ug/ml of camptothcin (FIG. 1A) or absence of drug (FIG. 1B).

[3] = target: human pol sigma (pol sigma-1) (Homo sapiens, UniProt Q5XG87); assay: inhibition of human pol sigma; format: biochemical
rat polymerase β = rat polymerase β (Rattus norvegicus, UniProt P06766); format: biochemical
Description: To a 50 μL of 62.5 mM 2-amino-2-methyl-1,3-propanediol buffer, pH 8.6, containing 10 mM MgCl2, 1 mM DTT, 100 μg/mL BSA, 6.25 μM dNTPs including 0.04 Ci/mmol [^3H]dTTP, and 0.25 mg/mL activated calf thymus DNA was added 6 μL of a solution containing each test compound and 4 μL of recombinant rat liver DNA polymerase β preparation (6.9 units, 4.8×10^4 units/mg). After incubation at 37° C. for 60 min, the radiolabeled DNA product was collected on DEAE-cellulose paper (DE-81), dried, and rinsed successively with 0.4 M K2HPO4, pH 9.4, and 95% ethanol for radioactivity determination.

[4] = target: T1, yeast polymerase σ (Trf4, pol sigma-I) (Saccharomyces cerevisiae, UniProt P53632); assay: in vitro primer extension assay (5'-32P dT16 primer / poly dA template) for polymerase σ inhibition; format: biochemical, yeast (S. cerevisiae); details: for inhibition of polymerase σ in primer extension assay (FIG. 3), in words: 10 μM test compound, 5 min, dTTP, Mg2+; for concentration level of yeast pol sigma inhibition, in words: yeast pol sigma in vitro
T1 construct: His6 (peptide tag containing six histidines); made in house; host or cells: E. coli
T1 sequence (P53632 1-584): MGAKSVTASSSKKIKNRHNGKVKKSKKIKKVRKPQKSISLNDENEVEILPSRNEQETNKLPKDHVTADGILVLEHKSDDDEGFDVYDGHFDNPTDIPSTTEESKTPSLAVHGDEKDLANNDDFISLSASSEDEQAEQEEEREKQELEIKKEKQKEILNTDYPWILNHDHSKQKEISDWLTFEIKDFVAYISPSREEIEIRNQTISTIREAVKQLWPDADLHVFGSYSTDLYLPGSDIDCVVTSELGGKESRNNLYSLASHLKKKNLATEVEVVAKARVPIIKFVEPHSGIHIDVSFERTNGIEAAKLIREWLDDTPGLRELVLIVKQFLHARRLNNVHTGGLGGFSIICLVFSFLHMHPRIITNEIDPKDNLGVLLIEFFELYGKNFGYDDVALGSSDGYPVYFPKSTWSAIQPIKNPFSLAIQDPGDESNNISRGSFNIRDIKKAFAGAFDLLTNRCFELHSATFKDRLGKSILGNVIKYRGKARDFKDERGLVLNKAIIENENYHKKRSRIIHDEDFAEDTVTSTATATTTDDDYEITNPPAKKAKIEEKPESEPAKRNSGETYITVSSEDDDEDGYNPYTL
Description: Due to the predicted structural similarity between pol sigma and pol β (Aravind and Koonin, 1999, Nucleic Acids Research 27: 1609-1618) several known β polmerase inhibitors were tested to determine if they would inhibit pol sigma in vitro. […] The template primer was incubated in the presence of dTTP, Mg^2+ and 10 μM test compound for 5 min. […] Lane 1 of FIG. 3 is a control with only the DMSO solvent added to the poly dA/ oligo dT assay, the remaining lanes represent reactions run in the presence of one of the β polmerase inhibitors.
The assay system that has been employed to date employs a dT16 primer annealed to a poly dA template (average length 282 nucleotides). Primer elongation as a consequence of the addition of T residues (in a distributive fashion) has been monitored by polyacrylamide gel electrophoresis. For purposes of screening for inhibitors a variant of the DNA polymerase β this system will be used as follows: […]

Sequence of human pol sigma (pol sigma-1) (Q5XG87 whole entry): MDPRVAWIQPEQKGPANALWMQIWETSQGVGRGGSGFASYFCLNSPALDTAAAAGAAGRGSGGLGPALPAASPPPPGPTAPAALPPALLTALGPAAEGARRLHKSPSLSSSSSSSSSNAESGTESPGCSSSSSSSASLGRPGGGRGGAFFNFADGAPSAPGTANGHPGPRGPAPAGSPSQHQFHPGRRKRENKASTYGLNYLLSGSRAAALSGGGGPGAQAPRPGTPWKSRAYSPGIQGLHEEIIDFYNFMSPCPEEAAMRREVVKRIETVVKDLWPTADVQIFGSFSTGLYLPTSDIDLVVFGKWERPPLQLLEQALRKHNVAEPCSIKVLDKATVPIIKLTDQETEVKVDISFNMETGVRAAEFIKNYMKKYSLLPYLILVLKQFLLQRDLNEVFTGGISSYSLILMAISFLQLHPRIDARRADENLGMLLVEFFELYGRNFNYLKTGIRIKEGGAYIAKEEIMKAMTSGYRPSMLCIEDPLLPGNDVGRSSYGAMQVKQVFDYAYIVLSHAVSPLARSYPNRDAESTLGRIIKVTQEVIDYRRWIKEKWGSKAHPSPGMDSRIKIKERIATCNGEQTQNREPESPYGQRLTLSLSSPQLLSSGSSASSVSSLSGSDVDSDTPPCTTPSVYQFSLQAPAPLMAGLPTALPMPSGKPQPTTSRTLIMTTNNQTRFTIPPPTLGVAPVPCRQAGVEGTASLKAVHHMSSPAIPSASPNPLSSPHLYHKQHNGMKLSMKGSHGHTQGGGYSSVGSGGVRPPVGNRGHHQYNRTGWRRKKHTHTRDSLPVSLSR

## CC[C@@]1(O)C(=O)OCc2c1cc1n(c2=O)Cc2cc3ccccc3nc2-1 [camptothecin]
P388D1 cells
  toxicity to P388D1 cells, in words: minimal toxicity
[1]; P388D1 cells (suspension culture), Experiment 1, P388D1 cells
  viability at 6 h: 84%
[1]; P388D1 cells (suspension culture), Experiment 2, P388D1 cells
  viability at 6 h: 77%
[2]; 10 ug/ml, 30° C., 2 days, trf4::HIS3 and mcd1-1
  sensitivity of pol sigma-deficient yeast relative to wild-type strains, in words: hypersensitive
[2]; yeast cells lacking TRF4 (FIG. 1)
  sensitivity of yeast cells lacking TRF4 to the agent relative to wild type: 10,000 fold

## C[C@H]1[C@H](C)CC[C@]2(C(=O)O)CC[C@]3(C)C(=CC[C@@H]4[C@@]5(C)CC[C@H](O)C(C)(C)[C@@H]5CC[C@]43C)[C@H]12 [ursolic acid]
[3]
  inhibitory activity against human pol sigma, in words: inhibitory activity
P388D1 cells
  toxicity to P388D1 cells, in words: minimal toxicity
[1]; Experiment 1, P388D1 cells
  viability at 6 h: 88%
[1]; Experiment 2, P388D1 cells
  viability at 6 h: 77%
Rat polymerase β
  rank order of potencies for rat polymerase β: ursolic acid >betulinic acid >> 3β-hydroxy-7,24-euphandien-26-oic acid
[4]
  inhibition of polymerase σ in primer extension assay (FIG. 3), in words: showing activity
  concentration level of yeast pol sigma inhibition, in words: micromolar concentrations
[4]; listed as Ursolic acid
  concentration level of yeast pol sigma inhibition, in words: inhibits yeast polymerase σ

## C/C(=C\CC[C@@H](C)[C@@H]1CC[C@]2(C)C3=CC[C@H]4C(C)(C)[C@@H](O)CC[C@]4(C)[C@H]3CC[C@@]12C)C(=O)O [(24E)-3beta-hydroxy-7,24-euphandien-26-oic acid]
[3]
  inhibitory activity against human pol sigma, in words: inhibitory activity; also recorded: active, albeit only at micromolar concentrations; also recorded: also work to inhibit human pol sigma-1
Rat polymerase β; rat polymerase β
  rank order of potencies for rat polymerase β: ursolic acid >betulinic acid >> 3β-hydroxy-7,24-euphandien-26-oic acid
[4]
  pIC50: ~6.30
  inhibition of polymerase σ in primer extension assay (FIG. 3), in words: most potent of the species tested
  concentration level of yeast pol sigma inhibition, in words: nanomolar level inhibitor
[4]; 10 uM concentration
  pol sigma polymerase activity observed in presence of compound: no activity whatsoever

## C=C(C)[C@@H]1CC[C@]2(C(=O)O)CC[C@]3(C)[C@H](CC[C@@H]4[C@@]5(C)CC[C@H](O)C(C)(C)[C@@H]5CC[C@]43C)[C@@H]12 [betulinic acid]
Rat polymerase β
  rank order of potencies for rat polymerase β: ursolic acid >betulinic acid >> 3β-hydroxy-7,24-euphandien-26-oic acid
[4]
  inhibition of polymerase σ in primer extension assay (FIG. 3), in words: showing activity
  concentration level of yeast pol sigma inhibition, in words: micromolar concentrations
